For two molecules, IC50 results are on record in patent US6632822B1, “Compounds and therapeutic methods” (The Australian National University, priority 1999, dated 2003).

Where two headings read alike, the source gives them in different places.

The subject of assay [1] is Plasmodium falciparum chloroquine-resistant strain (FAF6, derived from ITG2 strain). In words: Growth inhibition of chloroquine-resistant malaria parasite (parasite lactate dehydrogenase viability). The class given is cell-based. An excerpt:
Compounds IA and IB (also referred to herein as calothrixins A and B respectively) were isolated from Calothrix strains (Schlegel et al, J. Appl, Phycol. 10, 471-479 (1998)), extracts of which were screened for activity against HeLa cells and Plasmodium as described in the Examples.
A chloroquine-resistant strain (FAF6, derived from ITG2 strain (Biggs, B. A., Gooze, L., Wycherley, K., Wollish, W., Southwell, B., Leech, J. H., and Brown, G. V (1991). Proc. Natl. Acad. Sci. USA 88, 9171-9174, 1991) of the malaria parasite. Plasmodium falciparum was used. Parasites were cultured in standard media (Trager, W. and Jensen, J. B. (1976). Science 193 673-675) with modifications (Cranmer, S. L., Magowan, C., Lian, J., Coppel, R. L., and Cooke, B. M. (1997). Trans. Roy. Soc. Trop. Med. Hyg. 91, 363-365). At the start of the assay the parasitaemia was 2% and haematocrit was 2%. Parasites were incubated in the presence of inhibitors in 96-well plates for 48 h.
Parasite-derived lactate dehydrogenase activity at the end of the 48 h period was used as a measure of parasite viability in vitro (Makler, M. T., Ries, J. M., Williams, J. A., Bancroft, J. E., Piper, R. C., Gibbins, B. L., and Hinrichs, D. J. (1993). Am. J. Trop. Med. Hyg. 48, 739-741).
The results are illustrated in FIG. 1.

In assay [2] the test system is HeLa cells. The assay can be described thus: HeLa cell cytotoxicity, MTT assay. The following applies: cultured HeLa cells, 4 days continuous incubation, ± s.d., listed as IB (Calothrixin B). The format is cell-based. The protocol:
The compounds of Formula IA and IB were also examined for their efficacy in inhibiting the growth of cultured HeLa cells (FIG. 2). The IC50 values are depicted in Table 2.
Exponentially growing HeLa cells were trysinized, centrifuged and resuspended in fresh medium. (RPMI 1640, 20% FCS, 2 mM glutamine). […] Calothrix cell extracts or the purified active compound were prepared in dimethyl sulphoxide, serially diluted in complete medium, then added (100 μL) in quadruplicate to cell suspensions. Cells were incubated continuously with extracts at 37° C. for 4 days. Cytotoxicity was determined using the MTT [3-(4,5dimethylthiazol-2-yl)-2,5-diphenyl-tetrazolium bromide] assay. MTT (50 μL, 2 mg ML^−1) was aliquotted into all wells of the microtitre plate and incubated at 37° C. for 4 h. Plates were inverted to discard medium and formazan crystals were solubilized in 100 μL DMSO with 25 μL glycine buffer (0.1 M glycine in 0.1 M NaCl, pH 10.5). Plates were agitated for 30 s and absorbances determined immediately at […] using a Titertek Multiskan Plus MKII ELISA plate reader.
The results are illustrated in FIG. 2.
(In general: Tetrazolium assays rely on reduction of a dye to a coloured formazan, in cell work by metabolically active cells.)

As usually defined, the IC50 is the midpoint of a concentration-inhibition curve. Take `CCN(CC)CCCC(C)Nc1ccnc2cc(Cl)ccc12` (stereo not drawn) [Chloroquine, reference compound]: the IC50 in assay [1] (Plasmodium falciparum, 48 h) worked out at 180 ± 44 nM.
Consider `O=C1c2[nH]c3ccccc3c2C(=O)c2cnc3ccccc3c21` [IB, Calothrixin B], for which the IC50 worked out at 83 ± 17 nM in assay [1] (chloroquine-resistant P. falciparum strain FAF6, 48 h incubation, parasite lactate dehydrogenase activity, ± s.d., listed as IB (Calothrixin B), read-out: IC50) and 350 ± 82 nM in assay [2].
